We go through three substances from patent US20230014782A1, “NEW SOLID STATE FORM OF LURBINECTEDIN” (PHARMA MAR, S.A., priority 2019, published 2023).

Where only a bound is given, the exact number is not on record here.

Series [1] in a line: Dynamic vapor sorption (DVS). Type of series: physicochemical. Here is the method: DVS experiments were carried out with a Projekt Messtechnik SPS 11-100n multi-sample water vapor sorption analyzer. The sample was allowed to equilibrate at 50% r.h. before starting a pre-defined humidity program. The program was: • 2 h at 50% r.h. • 50 to 0% r.h. […]
DVS indicates a continuous water uptake and release with no steps and almost no hysteresis. […] Upon lowering the relative humidity again, the water content decreased and nearly returned to the original mass, see FIG. 5.

Series [2] is described as follows: TG-FTIR thermal degradation. Type of series: physicochemical. As to conditions: N2 atmosphere, 25-250° C., 10° C./min. Here is the method:
TG-FTIR experiments were conducted with a Thermo-Microbalance TG-209 (Netzsch) equipped with a FT-IR Spectrometer Vector 22 (Bruker) using Al crucible (open or with microhole) under N2 atmosphere with a heating range between 25 and 250° C. and a heating rate of 10° C./min.
TG-FTIR indicates degradation above 150° C. for form B of lurbinectedin. A release of 2.6% of water was detected.

A short description of series [3]: Direct dissolution of lurbinectedin in sodium lactate buffer (dissolution kinetics). Type of series: physicochemical. Here is the method: In embodiments, the lurbinectedin to be dissolved is at least partially crystalline. The lurbinectedin to be dissolved may be in the solid state form(s) described herein. […] By way of example, while the direct dissolution of amorphous lurbinectedin at 0.5 mg/mL in 0.03 M sodium lactate buffer pH 4 was completed in approximately 30 minutes, partly crystalline lurbinectedin reached only 60-70% of the target concentration in 2 hours, meaning that it had much slower dissolution kinetics.

Series [4] is described as follows: Electrostatic charge measurements with a Faraday cage. Type of series: physicochemical. As to conditions: for Dispersion of charge density (Q/m) / Average charge density (Q/m): Faraday cage, dry nitrogen, ranges with 95% confidence; for Average charge density (Q/m): slope of lineal regression of charge vs mass. An excerpt:
The electrostatic charges of two batches of form A of lurbinectedin (Batches P04 and R05) and of form B of lurbinectedin (Batch 1924129-LT and 1924128-LT) have been measured using a Faraday cage (See FIG. 8) constructed of stainless steel with concentric spheres with ratios 10, 15 and 20 cm.
This technique consists in placing the sample to be measured (q) in the interior of the inner sphere (a) and measuring the difference of potential induced between sphere (a) and another conductor of reference, sphere (b). The external sphere (c) is grounded in order to shield the system. The measurements of the difference of potential were carried out with a precision electrometer (Keithley 617, resolution 10fC.
Measurements were carried out under controlled atmosphere of dry nitrogen in order to avoid the effect of ambient humidity on the electrostatic charge of the samples.
Samples were introduced in glass capsules using non-conductor instrumental to avoid loses of electrostatic charge.
The capsules loaded with the samples were introduced in the Faraday cage through a grounded conductor tube to avoid parasitic static charges in the glass capsule. The entry and removal of the capsules was done with a computer-controlled servo engine, in order to ensure a constant rate of introduction and removal of the capsules in each measurement to minimize the creation of static charges due to friction of the insulator elements.
Several measurements with different amounts of material were carried out for each batch of each form of lurbinectedin. Before loading the capsules, they were washed and their remaining static charge was measured in order to correct the levels. Each sample was introduced and removed five times and, after each introduction, several consecutive measurements were taken in order to average any possible drift effect. FIGS. 9a and 9b summarized the results of such measurement for each pair of batches of forms A and B of lurbinectedin.
The measured charge Q increases with the amount of analyzed material. Both forms of lurbinectedin have a positive electrostatic charge. […] The data was fitted by lineal regression (dashed lines in FIGS. 9a and 9b) to obtain the charge density (Q/m) as the slope of the line. […] All ranges are given with a 95% confidence.

A further series can be described thus: DSC thermal degradation. The class given is physicochemical. To be noted: closed Au crucibles, -50 to 250° C. Here is the method:
DSC experiments were carried out with a Perkin Elmer DSC 7 using closed Au crucibles with a heating range between −50 to 250° C. and a heating rate of 10 or 20° C./min.
Estimation of the amorphous content by DSC was not possible. […] A glass transition temperature or melting point was not detected.

Series [5] can be described thus: Mixing of the concentrated lurbinectedin solution with buffer solution, precipitation. Type of series: physicochemical. To be noted: high concentration lurbinectedin solution (8.3 mg/mL in 0.1M lactic acid). Here is the method:
In embodiments, a multi-step compounding strategy is used to prepare lurbinectedin. Step 1 is the pre-dissolution step described above, for example: pre-dissolving partly crystalline lurbinectedin in lactic acid 0.31M at 25 mg/mL and diluting 3× with WFI to obtain the concentrated solution at 8.3 mg/mL in 0.1M lactic acid. To avoid precipitation of lurbinectedin, the remaining excipients should have acid pH when added to the compounding formulation. […] As such, in Step 2, an organic buffer solution containing the bulking agent (eg disaccharide) may be prepared at suitable pH. By way of example, this may comprise the preparation of a 0.04 M sodium lactate buffer at pH of around 4.2 containing sucrose. In step 3, the solutions from step 1 and step 2 are combined to form the final bulk solution. The final bulk solution may be adjusted with WFI to achieve the final target weight. By way of example, in step 3, the 8.3 mg/mL lurbinectedin concentrated solution in 0.1M lactic acid with pH≈3 is diluted with 0.04M sodium lactate buffer pH≈4.2 containing sucrose. The final bulk solution composition after adjustment of WFI to final weight may be, by way of example, 0.5 mg/mL lurbinectedin in 0.03M sodium lactate buffer pH=4+10% (w/v) sucrose. The present invention therefore identifies a compounding strategy to formulate partially crystalline lurbinectedin.

The test system of series [6] is solid and non-solid tumour cell lines. To be noted: cited from earlier work.
The nature of series [7]: Maximum solubility of lurbinectedin in different molarities of lactic acid. The class given is physicochemical. On the procedure:
As such, in embodiments, a concentrated lurbinectedin solution is prepared in organic acid before addition of other excipients. In preferred embodiments, the organic acid has a pH less than 4, preferably less than 3.5, more preferably less than 3, or around 3. The maximum solubility of lurbinectedin was investigated in different molarities of the organic acid lactic acid. […] In a preferred embodiment, lurbinectedin is dissolved in an organic acid with a molarity of around 0.1 M to 0.5 M, preferably around 0.2 M to 0.4 M, more preferably around 0.3 M organic acid. An exemplary molarity is 0.31 M organic acid.

Series [8] deals with xenografted human tumor cell lines. To be noted: xenografts in mice, such as breast, kidney and ovarian cancer; cited from earlier work.

For lurbinectedin [form B of lurbinectedin], in series [1], the “Deliquescence (DVS)” value is given as “not deliquescent” and the “Hygroscopicity (DVS)” value is given as “hygroscopic”. In addition, the “Mass change Δm (water uptake, DVS)” value in series [1] (50 to 96% r.h.) is recorded as “≈ 4%”. The “Degradation temperature (TG-FTIR)” value in [2] was “above 150 °C”. In addition, in [3] (target 0.5 mg/mL in 0.03 M sodium lactate buffer pH 4, in 2 hours), the “Fraction of target concentration reached” value is recorded as 60-70%. In addition, in [4] (listed as 1924128-LT), the “Dispersion of charge density (Q/m)” value stood at 1.01 ± 0.3 nC/g and the “Average charge density (Q/m)” value is on record as 4.3 ± 0.4 nC/g. In series [4] (listed as 1924129-LT), the “Dispersion of charge density (Q/m)” value is listed as 3.4 ± 1.4 nC/g and the “Average charge density (Q/m)” value came out at 4.96 ± 2.0 nC/g. For the same substance, the “Average charge density relative to form A” value in series [4] (two different batches of each form) was “one order of magnitude lower”. Also, the “Temperature at which degradation begins (DSC)” value in the series “DSC thermal degradation” was “above 130 °C”.

On to lurbinectedin, for which the “pH of buffer solution that can be mixed without precipitation of lurbinectedin” value in series [5] is on record as at most 5.6. For the same substance, the In vitro activity entry in [6] was “highly potent”. Also, the Maximum solubility in series [7] (0.05 M lactic acid) stood at 7.2 mg/mL; in series [7] (0.5 M lactic acid), 90.4 mg/mL. Moreover, the In vivo activity entry in series [8] was “significant”.

Consider lurbinectedin [form A of lurbinectedin], for which, in [3] (0.5 mg/mL in 0.03 M sodium lactate buffer pH 4), the “Time to complete direct dissolution” value was “approximately 30 minutes”. For the same substance, the “Total static charge relative to form B” value in [4] is recorded as “considerably higher”. In addition, in [4] (listed as P04), the “Dispersion of charge density (Q/m)” value was 7.6 ± 2.8 nC/g and the “Average charge density (Q/m)” value came to 43.1 ± 3.86 nC/g. In addition, in series [4] (listed as R05), the “Dispersion of charge density (Q/m)” value is recorded as 15.23 ± 5.64 nC/g and the “Average charge density (Q/m)” value was 64.02 ± 7.98 nC/g.
